The text below walks through data of patent publication US4710580A, “2-[1,3,2-dioxaphospholan-2-yloxy]ethyl compounds” (American Home Products Corporation, priority 1986, dated 1987).

The target of one experiment is T1, human platelet PLA2 (Homo sapiens, UniProt P14555).
T1 construct: The PLA2 enriched supernatant fluid is removed and the amount of protein is determined by the Lowry method; from tissue; host or cells: human platelets (expired, blood bank), acid extract, 10,000 g supernatant
T1 sequence (P14555 21-144): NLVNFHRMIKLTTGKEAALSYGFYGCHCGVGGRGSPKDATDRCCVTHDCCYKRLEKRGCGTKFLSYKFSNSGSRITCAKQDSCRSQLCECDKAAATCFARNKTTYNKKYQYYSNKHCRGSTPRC
Briefly: in vitro inhibition of human platelet PLA2 (hydrolysis of [1-14C] oleic acid-labelled E. coli membrane phospholipids). Format: biochemical. The following applies: pH 7.4, 30 minutes incubation. How it is done: The ability of the compounds to inhibit the activity of PLA2 enzyme is measured in the following in vitro assay.
The assay is carried out as follows:
E. coli, cultured to exponential growth, are sedimented for 15 minutes at 10,000 g and resuspended in sterile isotonic saline (1-3 ml). 10-25 μCi [1-^14 C] oleic acid (or arachidonic acid) is added to a sterile flask, evaporated by N2 and resolubilized with 0.3 ml 20% fatty acid-free BSA. 75-100 ml of nutrient broth and 1 ml E. coli are then added to each flask and incubated for 2-3 hours at 37° C. [1-^14 C] oleic acid labelled E. coli are then sedimented, suspended in saline and added to fresh nutrient broth and incubated for 1.5 hours at 37° C. to complete [1-^14 C] oleic acid incorporation into the phospholipids. After overnight refrigeration of cultures, E. coli are again sedimented, suspended in saline and autoclaved for 15 minutes at 120° C. E. coli cultures are washed twice with saline (first wash contains 1% BSA) and resuspended in saline. […] Cell number is determined by measuring the optical density at 550 nm ([…]=1 O.D.). The amount of radioactivity associated with cells is determined by counting a defined volume of cell suspension. […]
Expired human platelets from the blood bank are centrifuged for 15 minutes at 200 g to obtain a platelet rich plasma fraction and to remove the red blood cells. […] The PLA2 enriched supernatant fluid is removed and the amount of protein is determined by the Lowry method. […]
The assay measures the hydrolysis of E. coli membrane phospholipids and the release of free [1-^14 C] oleic acid from the C-2 position of phospholipids by human platelet PLA2. […] Free fatty acid ([1-^14 C] oleic acid labeled phospholipids are visualized with exposure to iodine vapors. Radioactive areas that co-chromatographed with authentic oleic acid and phospholipid standards are cut out and placed in a scintillation vial. One ml CH3 OH and 10 ml Hydrofluor are added to each cut strip and radioactivity is determined by liquid scintillation counting.
The percent hydrolysis is calculated by the following equation: [formula]

Experiment [1] deals with lipoxygenase and/or cyclooxygenase pathways of arachidonic acid. Briefly: 12-O-tetradecanoylphorbol acetate (TPA)-induced murine ear edema test. Format: in vivo, Swiss Webster female mice. The following applies: 1 mg/ear, drug 30 minutes after TPA (4 μg/ear), ear thickness measured after 4 hours. From the text:
(§1) The ability of the compounds of the invention to inhibit the lipoxygenase and/or cyclooxygenase pathways of arachidonic acid is examined in the in vivo arachidonic acid (AA)-/12-O-tetradecanoylphorbol acetate (TPA)-induced murine ear edema test.
(§2) According to this test, Swiss Webster female mice (Buckshire), approximately 8 weeks old, are placed into plastic boxes in groups of six. Eight groups of mice receive AA topically on the right ear, and another 8 groups receive TPA topically on the right ear. AA and TPA are dissolved in acetone at concentrations of 100 mg/ml ad 100 μg/ml respectively. The phlogistics are applied to the right ear by the means of an automatic pipet. Volumes of 10 μl are applied to the inner and outer surfaces of the ear. Each mouse receives either 2 mg/ear AA or […] TPA. The left ear (control) receives acetone delivered in the same manner. […]
(§3) Measurements are taken with Oditest calipers, 0-10 mm with 0.01 graduations. The right and left ears are measured after 1 hour AA-induced inflammation and 4 hours after TPA-induced inflammation.
(§4) The difference between right and left ear thickness is calculated and the significance is determined by a one way analysis of variance with Dunnett's comparisons to control (P=0.05). Drug effects are expressed as a percent change from control values: [formula]

Experiment [2] has the same test system. Kind of experiment: arachidonic acid (AA)-induced murine ear edema test. Format: in vivo, Swiss Webster female mice. Particulars: 1 mg/ear, drug 30 minutes prior to AA (2 mg/ear), ear thickness measured after 1 hour.
Excerpt: as §1, §2, §3, §4

`CCCCCCCCCCCCCCCCS(=O)(=O)NCCOP1(=O)OCCO1` [Example 3, N-[2-(1,3,2-dioxaphospholan-2-yloxy)ethyl]-1-hexadecanesulfonamide P-oxide] yielded an inhibition at 100 µM against human platelet PLA2 of 28%.

On to `CCCCCCCCCCCCNC(=O)NCCOP1(=O)OCCO1` [Example 1, N-[2-(1,3,2-Dioxaphospholan-2-yloxy)ethyl]-N'-dodecylurea P-oxide], for which the inhibition at 100 µM against human platelet PLA2 is 32%.

For `CCCCCCCCCCCCNC(=O)OCCOP1(=O)OCCO1` [Example 2, Dodecylcarbamic acid 2-(1,3,2-dioxaphospholan-2-yloxy)ethyl ester P-oxide], the “% Change from Control, TOPICAL, TPA” value in experiment [1] was -38%. The compound further had an inhibition at 100 µM against human platelet PLA2 of 92%. The “% Change from Control, TOPICAL, AA” value in experiment [2] is -16%.
